Test results taken from patent US6936609B2, “Imidazotriazines for use as phosphodiesterase inhibitors” (Bayer HealthCare AG, priority 2001, dated 2005).

SMILES | melting point
CCCc1nc(C)c2c(Sc3ccc(NC(C)=O)cc3)nc(-c3ccccc3OCC)nn12 [Example 36, N-(4-{[2-(2-Ethoxyphenyl)-5-methyl-7-propylimidazo[5,1-f][1,2,4]triazin-4-yl]-sulphanyl}phenyl)acetamide] | 226 to 228 °C
COc1ccc(CNc2nc(-c3ccc(Br)cc3)nn3c(C)nc(C)c23)cc1OC [Example 51, 2-(4-Bromophenyl)-N-(3,4-dimethoxybenzyl)-5,7-dimethylimidazo[5,1-f]-[1,2,4]triazin-4-amine] | 119 to 122 °C
CCCc1nc(C)c2c(Nc3cc(OC)c(OC)c(OC)c3)nc(-c3ccccc3OCC)nn12 [Example 44, 2-(2-Ethoxyphenyl)-5-methyl-7-propyl-N-(3,4,5-trimethoxyphenyl)imidazo[5,1-f]-[1,2,4]triazin-4-amine] | 112 to 114 °C
CCCc1nc(C)c2c(Nc3cccc(Br)c3)nc(-c3ccccc3OCC)nn12 [Example 39, N-(3-Bromophenyl)-2-(2-ethoxyphenyl)-5-methyl-7-propylimidazo[5,1-f]-[1,2,4]triazin-4-amine] | 96 °C
COc1ccc(Nc2nc(-c3ccc(OC)c(OC)c3)nn3c(C4CCCC4)nc(C)c23)cc1 [Example 20, 7-Cyclopentyl-2-(3,4-dimethoxyphenyl)-N-(4-methoxyphenyl)-5-methylimidazo-[5,1-f][1,2,4]triazin-4-amine] | 185 °C
CCc1nc(C2CCCC2)n2nc(-c3ccc(OC)cc3)nc(Nc3cc(OC)c(OC)c(OC)c3)c12 [Example 26, N-[7Cyclopentyl-5-ethyl-2-(4-methoxyphenyl)imidazo[5,1-f][1,2,4]triazin-4-yl]-N-(3,4,5-trimethoxyphenyl)amine] | 160 °C

The remaining lines, values ahead:

melting point | SMILES
199 °C | COc1cc(Oc2nc(-c3ccc(Br)cc3)nn3c(C)nc(C)c23)cc(OC)c1OC [Example 28, 2-(4-Bromophenyl)-5,7-dimethyl-4-(3,4,5-trimethoxyphenoxy)imidazo[5,1-f]-[1,2,4]triazine]
184 °C | COc1ccc(-c2nc(Oc3cc(OC)c(OC)c(OC)c3)c3c(C)nc(C)n3n2)cc1OC [Example 22, 2-(3,4-Dimethoxyphenyl)-5,7-dimethyl-4-(3,4,5-trimethoxyphenoxy)imidazo[5,1-f]-[1,2,4]triazine]
153 °C | CCCc1nc(C)c2c(Oc3cc(OC)c(OC)c(OC)c3)nc(-c3ccccc3OCC)nn12 [Example 101, 2-(2-Ethoxyphenyl)-5-methyl-7-propyl-4-(3,4,5-trimethoxyphenoxy)imidazo[5,1-f]-[1,2,4]triazine]
220 to 222 °C | COc1ccc(-c2nc(Nc3ccc(OC)c(OC)c3)c3c(C)nc(C)n3n2)cc1Cl [Example 33, 2-(3-Chloro-4-methoxyphenyl)-N-(3,4-dimethoxyphenyl)-5,7-dimethylimidazo-[5,1-f][1,2,4]triazin-4-amine]
176 to 179 °C | COc1cc(OC)cc(-c2nc(Nc3cc(OC)c(OC)c(OC)c3)c3c(C)nc(C)n3n2)c1 [Example 54, 2-(3,5-Dimethoxyphenyl)-5,7-dimethyl-N-(3,4,5-trimethoxyphenyl)imidazo[5,1-f]-[1,2,4]triazin-4-amine]
160 °C | COc1ccc(-c2nc(Oc3cc(OC)c(OC)c(OC)c3)c3c(C)nc(CC(C)C)n3n2)cc1Cl [Example 30, 2-(3-Chloro-4-methoxyphenyl)-7-isobutyl-5-methyl-4-(3,4,5-trimethoxyphenoxy)-imidazo[5,1-f][1,2,4]triazine]
220 °C | COc1cc(OC)cc(-c2nc(Oc3cc(OC)c(OC)c(OC)c3)c3c(C)nc(C)n3n2)c1 [Example 27, 2-(3,5-Dimethoxyphenyl)-5,7-dimethyl-4-(3,4,5-trimethoxyphenoxy)imidazo[5,1-f]-[1,2,4]triazine]
188 °C | COc1ccc(-c2nc(NCc3cc(OC)c(OC)c(OC)c3)c3c(C)nc(C4CCCC4)n3n2)cc1OC [Example 17, 7-Cyclopentyl-2-(3,4-dimethoxyphenyl)-5-methyl-N-(3,4,5-trimethoxybenzyl)-imidazo[5,1-f][1,2,4]triazin-4-amine]
